One assay concerns the target Recombinant Cat D (Homo sapiens (Human), UniProt P07339). Description: In vitro enzymatic Cathepsin D (Cat D) FRET assay. The class given is biochemical. The note with it: read-out: IC50 IP (μM) CatD. Summed up:
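Human Cat D expressed in CHO cells was incubated for one hour in 0.05 M citrate pH 3.5, 5 mM CHAPS, 10% DMSO final, with 20 nM quenched FRET peptide substrate. Reactions were stopped with Tris buffer raising pH to neutrality. Cleavage was read as fluorescence at excitation 500 nm, emission 580 nm.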

Assay [1] deals with Aβ40 in conditioned medium of cells stably expressing Amyloid Precursor Protein (APP). Description: In vitro BACE-1 cell-based assay (Aβ40 sandwich ELISA). The settings on record: read-out: IC50 IP (μM) BACE1 cell. Summed up:
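APP-expressing cells treated 24 h at 37 °C with compound in 10-point dose response (top 100 μM or 10 μM, 0.1% DMSO final). Secreted Aβ40 in conditioned medium quantified by sandwich ELISA (pAb40 capture, biotinylated 6E10 detection, time-resolved europium fluorescence); IC50 from percent inhibition versus concentration.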
In general terms: In an ELISA, binding on a coated surface is turned into a signal by an enzyme label.

For the next assay, the target named is human recombinant BACE1 (Homo sapiens (Human), UniProt P56817). Description: In vitro enzymatic BACE1 FRET assay. The class given is biochemical. The note with it: read-out: IC50 IP (μM) BACE1 enzyme. Summed up:
(§1)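 Protease purified by Ni-NTA chromatography; start with FRET substrate (50 nM); incubate 1 h; quench with Tris to neutral pH; read fluorescence ex 488 / em 590 nm.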

The target of a further assay is human recombinant BACE2 (Homo sapiens (Human), UniProt Q9Y5Z0). The experiment in a line: In vitro enzymatic BACE2 FRET assay. The class given is biochemical. The settings on record: read-out: IC50 IP (μM) BACE2 enzyme. A digest of the protocol:
as §1

Sequence of human recombinant BACE1 (P56817 46-501): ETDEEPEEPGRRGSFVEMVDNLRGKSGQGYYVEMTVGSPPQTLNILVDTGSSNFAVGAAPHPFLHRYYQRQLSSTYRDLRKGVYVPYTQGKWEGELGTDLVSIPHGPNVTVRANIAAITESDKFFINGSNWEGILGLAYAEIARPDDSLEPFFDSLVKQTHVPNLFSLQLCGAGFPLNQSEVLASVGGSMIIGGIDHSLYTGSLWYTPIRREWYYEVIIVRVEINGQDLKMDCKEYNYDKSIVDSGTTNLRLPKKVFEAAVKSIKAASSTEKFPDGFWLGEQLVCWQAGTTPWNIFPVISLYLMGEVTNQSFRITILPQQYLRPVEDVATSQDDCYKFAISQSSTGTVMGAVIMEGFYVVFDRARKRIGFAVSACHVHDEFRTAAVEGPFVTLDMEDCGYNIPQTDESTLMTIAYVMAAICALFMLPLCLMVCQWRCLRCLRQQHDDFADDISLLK
Sequence of human recombinant BACE2 (Q9Y5Z0 63-518): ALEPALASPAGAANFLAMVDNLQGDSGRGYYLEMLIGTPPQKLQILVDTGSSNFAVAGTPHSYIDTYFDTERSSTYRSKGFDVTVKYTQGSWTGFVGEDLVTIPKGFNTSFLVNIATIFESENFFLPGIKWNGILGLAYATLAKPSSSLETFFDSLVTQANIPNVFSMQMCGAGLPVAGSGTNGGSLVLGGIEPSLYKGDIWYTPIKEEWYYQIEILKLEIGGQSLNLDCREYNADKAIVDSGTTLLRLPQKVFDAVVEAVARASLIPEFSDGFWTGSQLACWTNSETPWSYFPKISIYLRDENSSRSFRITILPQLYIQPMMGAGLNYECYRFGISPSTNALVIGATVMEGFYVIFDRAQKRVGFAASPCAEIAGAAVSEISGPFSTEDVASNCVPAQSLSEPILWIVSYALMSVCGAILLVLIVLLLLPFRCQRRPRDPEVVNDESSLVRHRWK
Sequence of Recombinant Cat D (P07339 65-412): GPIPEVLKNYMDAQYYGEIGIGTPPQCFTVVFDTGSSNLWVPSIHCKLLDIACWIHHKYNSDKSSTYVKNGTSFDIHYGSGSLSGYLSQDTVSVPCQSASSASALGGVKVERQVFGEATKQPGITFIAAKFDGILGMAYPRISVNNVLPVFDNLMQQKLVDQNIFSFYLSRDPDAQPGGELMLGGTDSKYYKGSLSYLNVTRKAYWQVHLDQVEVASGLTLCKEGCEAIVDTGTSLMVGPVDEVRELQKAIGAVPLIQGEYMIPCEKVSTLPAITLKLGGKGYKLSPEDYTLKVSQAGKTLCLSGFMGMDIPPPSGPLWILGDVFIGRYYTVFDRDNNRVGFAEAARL

Regarding `C[C@]1(c2cc(NC(=O)c3cnc(OCc4ncco4)cn3)cnc2F)N=C(N)S[C@@]2(CF)C[C@H]21` [Example 607, N-(5-((1S,5S,6S)-3-amino-1-(fluoromethyl)-5-methyl-2-thia-4-azabicyclo[4.1.0]hept-3-en-5-yl)-6-fluoro-3-pyridinyl)-5-(1,3-oxazol-2-ylmethoxy)-2-pyrazinecarboxamide], the IC50 – broadly, the concentration that gives 50% inhibition – is > 400 µM on Recombinant Cat D, 0.000956 µM in assay [1], 0.975 nM at human recombinant BACE1 and 0.0237 µM at human recombinant BACE2.

Regarding `C#CCOc1cnc(C(=O)Nc2ccc(F)c([C@@]3(CF)N=C(N)S[C@@]4(c5c[nH]nn5)C[C@@H]34)c2)cn1` [Example 959, N-(3-((1S,5S,6S)-3-amino-5-(fluoromethyl)-1-(1H-1,2,3-triazol-4-yl)-2-thia-4-azabicyclo[4.1.0]hept-3-en-5-yl)-4-fluorophenyl)-5-(2-propyn-1-yloxy)-2-pyrazinecarboxamide], the IC50 on Recombinant Cat D was 44.1 µM; in assay [1], 0.00152 µM; at human recombinant BACE1 it was 0.0901 nM; at human recombinant BACE2, < 0.00203 µM.

On to `[2H]C([2H])([2H])OC[C@]12C[C@H]1[C@@](C)(c1cc(Nc3nccc4nc(OCC#C)cnc34)cnc1F)N=C(N)S2` [Example 853, N-(5-((1S,5S,6S)-3-amino-5-methyl-1-(((~2~H_3_)methyloxy)methyl)-2-thia-4-azabicyclo[4.1.0]hept-3-en-5-yl)-6-fluoro-3-pyridinyl)-2-(2-propyn-1-yloxy)pyrido[3,4-b]pyrazin-5-amine], for which the IC50 at Recombinant Cat D worked out at 791 µM; in assay [1], 0.000961 µM; at human recombinant BACE1, 0.878 nM; at human recombinant BACE2, 0.0244 µM.

Take `C[C@]1(c2cc(NC(=O)c3cnc(OCC(F)(F)F)cn3)ccc2F)N=C(N)S[C@@]2(C(=O)N3CC[C@H](F)C3)C[C@H]21` [Example 992, N-(3-((1S,5S,6S)-3-amino-1-((S)-3-fluoropyrrolidine-1-carbonyl)-5-methyl-2-thia-4-azabicyclo[4.1.0]hept-3-en-5-yl)-4-fluorophenyl)-5-(2,2,2-trifluoroethoxy)pyrazine-2-carboxamide]: the IC50 at Recombinant Cat D was found to be 954 µM; in assay [1] it was 0.000338 µM; at human recombinant BACE1, 0.776 nM; at human recombinant BACE2, 0.0125 µM.

For `C[C@H](Oc1cnc2c(Nc3cc(F)c(F)c([C@@]4(C)N=C(N)S[C@@]5(C(F)F)C[C@@H]45)c3)nccc2n1)c1ncco1` [Example 892, N-(3-((1S,5S,6S)-3-amino-1-(difluoromethyl)-5-methyl-2-thia-4-azabicyclo[4.1.0]hept-3-en-5-yl)-4,5-difluorophenyl)-2-((1 S)-1-(1,3-oxazol-2-yl)ethoxy)pyrido[3,4-b]pyrazin-5-amine], the IC50 on Recombinant Cat D was determined as 873 µM; in assay [1] it was 0.056 µM; at human recombinant BACE1, 2.78 nM; on human recombinant BACE2, 0.848 µM.

For `C[C@]1(c2cc(NC(=O)c3cnc(OCC(F)(F)F)cn3)ccc2F)N=C(N)S[C@@]2(C(=O)NCCF)C[C@H]21` [Example 1040, (1S,5S,6S)-3-amino-5-(2-fluoro-5-(5-(2,2,2-trifluoroethoxy)pyrazine-2-carboxamido)phenyl)-N-(2-fluoroethyl)-5-methyl-2-thia-4-azabicyclo[4.1.0]hept-3-ene-1-carboxamide], the IC50 worked out at 212 µM on Recombinant Cat D, 0.00284 µM in assay [1], 0.426 nM at human recombinant BACE1 and 0.0555 µM on human recombinant BACE2.

With `C[C@]1(c2cc(NC(=O)c3ncc(OCC(F)(F)F)cc3Cl)cc(F)c2F)N=C(N)S[C@@]2(CF)C[C@H]21` [Example 693, N-(3-((1S,5S,6S)-3-amino-1-(fluoromethyl)-5-methyl-2-thia-4-azabicyclo[4.1.0]hept-3-en-5-yl)-4,5-difluorophenyl)-3-chloro-5-(2,2,2-trifluoroethoxy)-2-pyridinecarboxamide], the IC50 at Recombinant Cat D worked out at 1200 µM; in assay [1] it was 0.0489 µM; on human recombinant BACE1 it was 2.94 nM; at human recombinant BACE2, 0.246 µM.

Turning to `C#CCOc1cnc2c(Nc3cnc(F)c([C@@]4(C)N=C(N)S[C@@]5(CO)C[C@H]54)c3)ncnc2c1` [Example 670, ((1S,5S,6S)-3-amino-5-(2-fluoro-5-((7-(2-propyn-1-yloxy)pyrido[3,2-d]pyrimidin-4-yl)amino)-3-pyridinyl)-5-methyl-2-thia-4-azabicyclo[4.1.0]hept-3-en-1-yl)methanol], the IC50 was 730 µM at Recombinant Cat D, 0.000969 µM in assay [1], 2.4 nM at human recombinant BACE1 and 0.17 µM on human recombinant BACE2.

For the compound `C[C@]1(c2cc(NC(=O)c3ccc(Cl)cn3)cnc2F)N=C(N)S[C@@]2(C(F)F)C[C@@H]12` [Example 655, N-(5-((1S,5S,6S)-3-amino-1-(difluoromethyl)-5-methyl-2-thia-4-azabicyclo[4.1.0]hept-3-en-5-yl)-6-fluoro-3-pyridinyl)-5-chloro-2-pyridinecarboxamide], the IC50 was 1720 µM at Recombinant Cat D, 0.006 µM in assay [1], 4.55 nM on human recombinant BACE1 and < 0.00203 µM at human recombinant BACE2.

As for `C#CCOc1cnc(C(=O)Nc2cc(F)c(F)c([C@@]3(C)N=C(N)S[C@@]4(C#N)C[C@H]43)c2)c(C)c1` [Example 1016, N-(3-((1S,5S,6S)-3-amino-1-cyano-5-methyl-2-thia-4-azabicyclo[4.1.0]hept-3-en-5-yl)-4,5-difluorophenyl)-3-methyl-5-(2-propyn-1-yloxy)-2-pyridinecarboxamide], the IC50 is > 400 µM at Recombinant Cat D, 0.0119 µM in assay [1], 1.04 nM at human recombinant BACE1 and 0.00764 µM on human recombinant BACE2.

For `CC(C)(CF)NC(=O)[C@]12C[C@H]1[C@@](C)(c1cc(NC(=O)c3ccc(C#N)cn3)ccc1F)N=C(N)S2` [Example 1018, (1S,5S,6S)-3-amino-5-(5-(5-cyanopicolinamido)-2-fluorophenyl)-N-(1-fluoro-2-methylpropan-2-yl)-5-methyl-2-thia-4-azabicyclo[4.1.0]hept-3-ene-1-carboxamide], the IC50 on Recombinant Cat D turned out to be 211 µM; in assay [1], 0.00113 µM; on human recombinant BACE1, 1.16 nM; at human recombinant BACE2, 0.00651 µM.

On to `C[C@]1(c2cc(NC(=O)c3ccc(OCC(F)(F)F)cn3)cc(F)c2F)N=C(N)S[C@@]2(CF)C[C@H]21` [Example 692, N-(3-((1S,5S,6S)-3-amino-1-(fluoromethyl)-5-methyl-2-thia-4-azabicyclo[4.1.0]hept-3-en-5-yl)-4,5-difluorophenyl)-5-(2,2,2-trifluoroethoxy)-2-pyridinecarboxamide], for which the IC50 at Recombinant Cat D is > 400 µM; in assay [1], 0.0453 µM; on human recombinant BACE1 it was 5.3 nM; at human recombinant BACE2, 0.29 µM.

As for `NC(=O)/C=C/[C@]12C[C@H]1[C@@](CF)(c1cc(NC(=O)c3ccc(Cl)cn3)ccc1F)N=C(N)S2` [Example 759, N-(3-((1R,5S,6S)-3-amino-1-((E)-3-amino-3-oxoprop-1-en-1-yl)-5-(fluoromethyl)-2-thia-4-azabicyclo[4.1.0]hept-3-en-5-yl)-4-fluorophenyl)-5-chloropicolinamide], the IC50 is > 400 µM at Recombinant Cat D, 0.00265 µM in assay [1], 1.01 nM at human recombinant BACE1 and < 0.00203 µM at human recombinant BACE2.

In the case of `NC1=N[C@](CF)(c2cc(NC(=O)c3ccc(Cl)cn3)ccc2F)[C@@H]2[C@H]3CSC[C@]32S1` (mixture of isomers) [Example 752, N-(3-((4S,4aR,7aS)-2-amino-4-(fluoromethyl)-4a,4b,5,7-tetrahydro-4H-thieno[3′,4′:2,3]cyclopropa[1,2-e][1,3]thiazin-4-yl)-4-fluorophenyl)-5-chloropicolinamide and N-(3-((4S,4aS,7aR)-2-amino-4-(fluoromethyl)-4a,4b,5,7-tetrahydro-4H-thieno[3′,4′:2,3]cyclopropa[1,2-e][1,3]thiazin-4-yl)-4-fluorophenyl)-5-chloropicolinamide], the IC50 on Recombinant Cat D was 26.4 µM; in assay [1], 0.0522 µM; at human recombinant BACE1 it was 6.8 nM; at human recombinant BACE2, 0.00709 µM.

With `CNC(=O)[C@]12C[C@H]1[C@@](C)(c1cc(NC(=O)c3cnc(OCC(F)(F)C(F)F)cn3)cc(F)c1F)N=C(N)S2` [Example 963, (1S,5S,6S)-3-amino-5-(2,3-difluoro-5-(((5-(2,2,3,3-tetrafluoropropoxy)-2-pyrazinyl)carbonyl)amino)phenyl)-N,5-dimethyl-2-thia-4-azabicyclo[4.1.0]hept-3-ene-1-carboxamide], the IC50 on Recombinant Cat D was found to be 267 µM; in assay [1], 0.0026 µM; at human recombinant BACE1 it was 0.194 nM; at human recombinant BACE2 it was 0.0631 µM.

Consider `C#CCOc1cnc(C(=O)Nc2cc(F)c(F)c([C@@]3(C)N=C(N)S[C@@]4(COC)C[C@H]43)c2)c(C)n1` [Example 862, N-(3-((1S,5S,6S)-3-amino-1-(methoxymethyl)-5-methyl-2-thia-4-azabicyclo[4.1.0]hept-3-en-5-yl)-4,5-difluorophenyl)-3-methyl-5-(2-propyn-1-yloxy)-2-pyrazinecarboxamide], for which the IC50 at Recombinant Cat D is 129 µM; in assay [1], 0.0072 µM; at human recombinant BACE1, 0.598 nM; on human recombinant BACE2, 0.017 µM.

These data come from US20160046618A1, “Cyclopropyl Fused Thiazin-2-Amine Compounds as Beta-Secretase Inhibitors and Methods of Use” (AMGEN INC., priority 2014, published 2016).
